{
  "source": "paper PMC3892053",
  "about": "“Pharmacokinetic/pharmacodynamic modeling for the determination of a cimicoxib dosing regimen in the dog” (BMC Veterinary Research, 2013)",
  "tested_on": "kaolin-induced paw inflammation",
  "assay": "PK/PD modelling (indirect response models) of kaolin paw inflammation endpoints",
  "assay_type": "in vivo, dog",
  "conditions": "for EC50 at 2 mg/kg / IC50 at 2 mg/kg: po; for EC50 at 2 mg/kg: read-out: EC50, body temperature",
  "description": "Pharmacokinetic and PK/PD modeling were performed by least-squares regression analysis using WinNonlin Professional software (WinNonlin® software, version 4.0.1, Pharsight Corporation, Mountain View, Ca, USA). For PK analysis, individual plasma cimicoxib concentrations were fitted to polyexponential equations. The data points were weighted by the inverse of the squared-fitted value. The number of exponential (2 or 3) terms needed to obtain the best fit for each data set was determined by the Akaike’s information criteria and by inspecting the plot of residuals. A biexponential equation corresponding to a mono-compartmental model for extravascular administration with a lag-time was selected (Equation 1).\nAs the effect cimicoxib on the local temperature and paw oedema after inflammation were present but lower than the other effects, these endpoints were not used for the PK/PD analysis. […] Finally, four endpoints were considered as suitable for the PK/PD analysis aiming at modelling the relationship between cimicoxib plasma concentrations and its antipyretic and anti-inflammatory effects, namely: body temperature (antipyretic effect), creeping speed, vertical force of the paw and clinical lameness score (anti-inflammatory effects).\nThe selected PK/PD models were of the class of the indirect response models as proposed by Dayneka. In these models, the measured response (R) is assumed to result from factors controlling either the development (Kin) or the dissipation (Kout) of the response according to Equation 3.\nwhere dR/dt is the rate of change of the response over time, Kin represents the zero-order rate constant for production of the response and Kout the first-order rate constant for loss of the response. The time development of measured response was modeled by a sigmoid-Emax (maximum stimulatory effect) or sigmoid-Imax (maximum inhibition effect) function (Hill models) that can be exerted either on Kin or Kout. […] The effect of cimicoxib on the central temperature was based on a model assuming that during the inflammation phase, thermogenesis is increased (increase in Kin) while thermolysis is reduced (reduction in Kout) until a new balance for central temperature is reached. The antipyretic effect of an NSAID consisted of an increase in thermolysis (increase of Kout) enabling the central temperature to return to its control values, according to Equation 4:\n(4) dR/dT=Kin-Kout×1+Emax×C^n/EC50^n+C^n×R\nFor the creeping test consisting of crossing the tunnel more or less rapidly, an empirical model postulating that the dog’s speed (m.s^-1) is the result of a balance between its motivation to move forward (Kin) and a braking effect (Kout) associated with the severity of inflammation with a lower Kout in control conditions than during inflammation. During inflammation, pain increases the braking effect (i.e. increase Kout) and decreases the speed to cross the tunnel. The anti-inflammatory effect of cimicoxib consisted in reducing the pain (by decreasing Kout), which in turn increased the speed to cross the tunnel as described by Equation 5:\n(5) dR/dT=Kin-Kout×1-Imax×C^n/IC50^n+C^n×R\nFor the vertical force measured with the force plate apparatus normalized by the weight of the dog (without units), Kin represents the ground reaction forces in control resting conditions and Kout represents the factors prompting the withdrawal of limb from the ground in the case of inflammation due to pain i.e. that Kout is increased in the case of inflammation. Thus, the anti-inflammatory effect of cimicoxib consisted in a reduction of pain (decrease of Kout) and the same model as for the creeping speed under the tunnel was used (see Equation 5).\nDuring inflammation, Kin is increased and the effect of cimicoxib was modelled using a concentration-dependent inhibition of Kin, according to Equation 6:\n(6) dR/dT=Kin×1-C^n/IC50^n+C^n-Kout×R",
  "key": {"[1]": {"conditions": "plasma concentration, oral 2 mg/kg, PM dogs, mean and range, 2 mg/kg"}},
  "note": "Like-named read-outs stand apart in the source and are kept apart here.",
  "data": [
    {"smiles": "COc1ccc(-c2c(Cl)ncn2-c2ccc(S(N)(=O)=O)cc2)cc1F", "note": "[cimicoxib]", "values": [
      {"measurement": "EC50", "setting": "Canis lupus familiaris, abstract, value matches EM dogs, read-out: plasma concentration corresponding to half the maximum of the indirect effect, body temperature", "value": 0.193, "unit": "µg/mL"},
      {"measurement": "IC50", "setting": "Canis lupus familiaris, abstract, value matches EM dogs, read-out: plasma concentration corresponding to half the maximum of the indirect effect, creeping speed", "value": 0.239, "unit": "µg/mL"},
      {"measurement": "IC50", "setting": "Canis lupus familiaris, abstract, value matches EM dogs, read-out: plasma concentration corresponding to half the maximum of the indirect effect, ground reaction vertical force", "value": 0.161, "unit": "µg/mL"},
      {"measurement": "IC50", "setting": "Canis lupus familiaris, abstract, value matches EM dogs, read-out: plasma concentration corresponding to half the maximum of the indirect effect, lameness score", "value": 0.284, "unit": "µg/mL"},
      {"measurement": "EC50 at 2 mg/kg", "setting": "Canis lupus familiaris, plasma concentration, oral 2 mg/kg, EM dogs, mean and range", "value": 0.193, "unit": "µg/mL"},
      {"measurement": "IC50 at 2 mg/kg", "setting": "Canis lupus familiaris, plasma concentration, oral 2 mg/kg, EM dogs, mean and range, read-out: IC50, creeping speed", "value": 0.239, "unit": "µg/mL"},
      {"measurement": "IC50 at 2 mg/kg", "setting": "Canis lupus familiaris, plasma concentration, oral 2 mg/kg, EM dogs, mean and range, read-out: IC50, lameness score", "value": 0.284, "unit": "µg/mL"},
      {"measurement": "IC50 at 2 mg/kg", "setting": "Canis lupus familiaris, plasma concentration, oral 2 mg/kg, EM dogs, mean and range, read-out: IC50, vertical force", "value": 0.161, "unit": "µg/mL"},
      {"measurement": "EC50 at 2 mg/kg", "setting": "Canis lupus familiaris, plasma concentration, oral 2 mg/kg, PM dogs, mean and range", "value": 0.473, "unit": "µg/mL"},
      {"measurement": "IC50 at 2 mg/kg", "setting": "Canis lupus familiaris, plasma concentration, oral 2 mg/kg, PM dogs, mean and range, read-out: IC50, creeping speed", "value": 0.345, "unit": "µg/mL"},
      {"measurement": "IC50 at 2 mg/kg", "setting": "Canis lupus familiaris, plasma concentration, oral 2 mg/kg, PM dogs, mean and range, read-out: IC50, lameness score", "value": 0.786, "unit": "µg/mL"},
      {"measurement": "IC50 at 2 mg/kg", "setting": "Canis lupus familiaris, plasma concentration, oral 2 mg/kg, PM dogs, mean and range, read-out: IC50, vertical force", "value": 0.325, "unit": "µg/mL"},
      {"measurement": "Emax, body temperature", "setting": "EM dogs, mean and range", "value": "0.04 [0.03, 0.06] no unit"},
      {"measurement": "Imax, creeping speed", "setting": "EM dogs, mean and range", "value": "0.71 [0.38, 1.00] no unit"},
      {"measurement": "Imax, vertical force", "setting": "EM dogs, mean and range", "value": "0.98 [0.93, 1.00] no unit"},
      {"measurement": "Kin, body temperature", "setting": "EM dogs, mean and range", "value": "41.30 [20.76, 84.13] °C.h^-1"},
      {"measurement": "Kin, creeping speed", "setting": "EM dogs, mean and range", "value": "0.90 [0.15, 2.71] m.s^-1.h^-1"},
      {"measurement": "Kin, lameness score", "setting": "EM dogs, mean and range", "value": "5.34 [1.17, 16.87] score.h^-1"},
      {"measurement": "Kin, vertical force", "setting": "EM dogs, mean and range", "value": "0.09 [0.06, 0.10] normalised force.h^-1"},
      {"measurement": "Kout, body temperature", "setting": "EM dogs, mean and range", "value": "1.04 [0.53, 2.10] h^-1"},
      {"measurement": "Kout, creeping speed", "setting": "EM dogs, mean and range", "value": "0.95 [0.24, 2.02] h^-1"},
      {"measurement": "Kout, lameness score", "setting": "EM dogs, mean and range", "value": "1.08 [0.22, 3.54] h^-1"},
      {"measurement": "Kout, vertical force", "setting": "EM dogs, mean and range", "value": "7.40 [3.21, 10.00] h^-1"},
      {"measurement": "Emax, body temperature", "setting": "PM dogs, mean and range", "value": "0.04 [0.03, 0.04] no unit"},
      {"measurement": "Imax, creeping speed", "setting": "PM dogs, mean and range", "value": "0.70 [0.44, 0.87] no unit"},
      {"measurement": "Imax, vertical force", "setting": "PM dogs, mean and range", "value": "0.97 [0.95, 0.99] no unit"},
      {"measurement": "Kin, body temperature", "setting": "PM dogs, mean and range", "value": "45.84 [42.76, 49.19] °C.h^-1"},
      {"measurement": "Kin, creeping speed", "setting": "PM dogs, mean and range", "value": "0.76 [0.36, 0.97] m.s^-1.h^-1"},
      {"measurement": "Kin, lameness score", "setting": "PM dogs, mean and range", "value": "2.57 [0.70, 4.96] score.h^-1"},
      {"measurement": "Kin, vertical force", "setting": "PM dogs, mean and range", "value": "0.09 [0.07, 0.10] normalised force.h^-1"},
      {"measurement": "Kout, body temperature", "setting": "PM dogs, mean and range", "value": "1.17 [1.09, 1.25] h^-1"},
      {"measurement": "Kout, creeping speed", "setting": "PM dogs, mean and range", "value": "1.07 [0.80, 1.47] h^-1"},
      {"measurement": "Kout, lameness score", "setting": "PM dogs, mean and range", "value": "0.509 [0.14, 0.99] h^-1"},
      {"measurement": "Kout, vertical force", "setting": "PM dogs, mean and range", "value": "8.47 [5.09, 9.99] h^-1"},
      {"measurement": "IC50, lameness score", "setting": "[1]", "value": "785.8 [579.4, 916.1] ng/mL"},
      {"measurement": "IC50, vertical force", "setting": "[1]", "value": "325.1 [235.3, 397.6] ng/mL"}
    ]}
  ]
}
